Experimental data reported in patent publication US4450269A, “Mono-5-substituted-3-chloro-4H-1,2,6-thiadiazin-4-one antifungal agents” (FMC Corporation, priority 1980, dated 1984).
Where two headings read alike, the source gives them in different places.

Experiments:
Pyricularia oryzae [1] = experiment: whole plant or invertebrate; assay type: in vivo; conditions: for pest or weed control at 150 ppm: Pyricularia oryzae, foliar, 24 h, read-out: Percent Disease Control, curative, rice blast, 150 ppm, 24 hours after inoculation
Fusarium solani = experiment: Mycelial growth test; assay type: cell-based; conditions: for inhibition at 5 ppm / inhibition at 10 ppm / inhibition at 20 ppm / inhibition at 40 ppm: Fusarium solani, 72 h; for inhibition at 5 ppm / inhibition at 10 ppm / inhibition at 20 ppm / Percent Fungus Growth Inhibition: PS, 72 hours; for inhibition at 5 ppm / inhibition at 10 ppm / inhibition at 20 ppm: read-out: Percent Fungus Growth Inhibition; for inhibition at 40 ppm: read-out: Percent Fungus Growth Inhibition, PS, 40 ppm, 72 hours
Pyricularia oryzae [2] = assay type: cell-based; conditions: PO, 48 hours

Row | Molecule | pest or weed control at 150 ppm (Pyricularia oryzae [1]) [%] | inhibition at 5 ppm (Fusarium solani; 5 ppm) [%] | inhibition at 10 ppm (Fusarium solani; 10 ppm) [%] | inhibition at 20 ppm (Fusarium solani; 20 ppm) [%] | inhibition at 40 ppm (Fusarium solani) [%] | Spore Germination Rating (Pyricularia oryzae [2]; 1.0 ppm) | Spore Germination Rating (Pyricularia oryzae [2]; 2.5 ppm) | Spore Germination Rating (Pyricularia oryzae [2]; 10 ppm) | Spore Germination Rating (Pyricularia oryzae [2]; 40 ppm) | Percent Disease Control, curative, rice blast (Pyricularia oryzae [1]; 150 ppm, 24 hours after inoculation) [%] | Percent Fungus Growth Inhibition (Fusarium solani; 5 ppm) [%] | Percent Fungus Growth Inhibition (Fusarium solani; 10 ppm) [%] | Percent Fungus Growth Inhibition (Fusarium solani; 20 ppm) [%] | Percent Fungus Growth Inhibition (Fusarium solani; 40 ppm) [%]
1 | O=c1c(Cl)nsnc1Oc1ccc([N+](=O)[O-])cc1 [Compound 9, 3-chloro-5-(4-nitrophenoxy)-4H--1,2,6-thiadiazin-4-one] | 90 | 65 | 76 | 53 | 100 | 0 (0-10) | 0 (0-10) | 0 (0-10) | 0 (0-10) | – | – | – | – | –
2 | Cc1cc(Cl)ccc1Oc1nsnc(Cl)c1=O [Compound 55, 3-chloro-5-(4-chloro-2-methylphenoxy)-4H--1,2,6-thiadiazin-4-one] | 50 | 0 | 13 | 17 | 20 | 1 (10-40) | 0 (0-10) | 0 (0-10) | 0 (0-10) | – | – | – | – | –
3 | O=c1c(Cl)nsnc1Oc1cccc2ccccc12 [Compound 32, 3-chloro-5(1-naphthoxy)-4H-1,2,6-thiadiazin-4-one] | 0 | 100 | 100 | 100 | 100 | 2 (40-60) | 0 (0-10) | 0 (0-10) | 0 (0-10) | – | – | – | – | –
4 | Cc1cc(C)cc(Oc2nsnc(Cl)c2=O)c1 [Compound 25, 3-chloro-5-(3,5-dimethylphenoxy)-4H--1,2,6-thiadiazin-4-one] | 0 | 50 | 100 | 100 | 100 | 3 (60-80) | 0 (0-10) | 0 (0-10) | 0 (0-10) | – | – | – | – | –
5 | O=c1c(Cl)nsnc1Oc1cccc(Cl)c1 [Compound 13, 3-chloro-5-(3-chlorophenoxy)-4H--1,2,6-thiadiazin-4-one] | 0 | 38 | 50 | 72 | 100 | 3 (60-80) | 0 (0-10) | 0 (0-10) | 0 (0-10) | – | – | – | – | –
6 | O=C(O)Cc1ccccc1Oc1nsnc(Cl)c1=O [Compound 45, 3-(2-carboxymethylphenoxy)-5-chloro-4H--1,2,6-thiadiazin-4-one] | 0 | 0 | 0 | 6 | 31 | 4 (80-100) | 4 (80-100) | 4 (80-100) | 1 (10-40) | – | – | – | – | –
7 | CSc1ccc(Oc2nsnc(Cl)c2=O)cc1 [Compound 39, 3-chloro-5-[(4-methylthio)phenoxy]-4H-1,2,6,-thiadiazin-4-one] | 0 | 42 | 79 | 68 | 42 | 2 (40-60) | 1 (10-40) | 1 (10-40) | 0 (0-10) | – | – | – | – | –
8 | O=c1c(Cl)nsnc1Oc1ccc(F)cc1 [Compound 11, 3-chloro-5-(4-fluorophenoxy)-4H--1,2,6-thiadiazin-4-one] | 0 | 17 | 33 | 83 | 75 | 3 (60-80) | 0 (0-10) | 0 (0-10) | 0 (0-10) | – | – | – | – | –
9 | Cc1cc(Oc2nsnc(Cl)c2=O)ccc1Cl [Compound 54, 3-chloro-5-(4-chloro-3-methylphenoxy)-4H--1,2,6-thiadiazin-4-one] | 0 | 27 | 30 | 20 | 20 | 0 (0-10) | 0 (0-10) | 0 (0-10) | 0 (0-10) | – | – | – | – | –
10 | 3-chloro-5-(bromophenoxy)-4H-1,2,6-thiadiazin-4-one [Compound 33] | – | – | – | – | – | 2 (40-60) | 0 (0-10) | 0 (0-10) | 0 (0-10) | 0 | 3 | 33 | 53 | 93
11 | COc1cc(Oc2nsnc(Cl)c2=O)cc(OC)c1C(C)=O [Compound 61, 3-[(4-acetyl-3,5-dimethoxy)-phenoxy]-5-chloro-4H--1,2,6-thiadiazin-4-one] | 0 | 16 | 46 | 23 | 0 | 4 (80-100) | 4 (80-100) | 2 (40-60) | 1 (10-40) | – | – | – | – | –
12 | Cc1ccccc1Oc1nsnc(Cl)c1=O [Compound 22, 3-chloro-5-(2-methylphenoxy)-4H--1,2,6-thiadiazin-4-one] | 0 | 17 | 67 | 83 | 100 | 2 (40-60) | 0 (0-10) | 0 (0-10) | 0 (0-10) | – | – | – | – | –
